What was measured:
Type in all cases: cell-based, human
[1] = test system: HaCaT cells; assay: Cell anchoring independent growth by soft agar colony forming test; conditions: persistent exposure to 1.0 μM, 35th passage, FIG. 5
Description: (§1) Two dishes of normal HaCaT cells (cell passage 0) were prepared. One dish of cells was persistently and chronically exposed to and incubated with Dulbecco's modified Eagle's medium (DMEM) with high glucose with 1.0 μM DMMTAv (containing 100 μg/ml streptomycin, 100 U/ml penicillin and 10% fetal bovine serum), and the medium was refreshed every 24 h. When the cells were grown to a confluency reaching 80%, the cells were sub-cultured and expanded up to the 35th passage. The other dish of cells was persistently and chronically exposed to and normally incubated with Dulbecco's modified Eagle's medium (DMEM) with high glucose (containing 100 μg/ml streptomycin, 100 U/ml penicillin and 10% fetal bovine serum), and the medium was refreshed every 24 h. When the cells were grown to a confluency reaching 80%, the cells were normally sub-cultured and expanded up to the 35th passage and used as the passage control group. One monitoring point is set every 7 passages to detect the cell doubling time of the 0th, 1st, 7th, 14th, 21st, 28th, 35th passages in the exposure group and the passage control group.
(§2) By detecting the changes in the matrix metalloproteinase-9 (MMP-9), the cell doubling time, the cell migration ability and cell anchoring independent growth, whether the cell undergoes malignant transformation is determined. […]

[2] = test system: HaCaT cells; assay: MMP-9 secretion after persistent exposure of sub-cultured HaCaT cells; conditions: persistent exposure to 1.0 μM; 21st, 28th and 35th passages; P<0.05; FIG. 2
Description: as §1, §2

[3] = test system: HaCaT cells; assay: Cell migration ability by scratch test; conditions: persistent exposure to 1.0 μM, 35th passage, vs passage control, P<0.05, FIG. 4
Description: as §1, §2

[4] = test system: HaCaT cells; assay: Malignant transformation of HaCaT cells by long-term exposure; conditions: long-term exposure to 1.0 μM, subculture to 35th passage
Description: as §1, §2

[5] = test system: HaCaT cells; assay: Cell survival of HaCaT cells by CCK-8 kit (determination of exposure dose); conditions: HaCaT cells treated 24 h with 0-2 μM, FIG. 1
Description: Determination of appropriate exposure dose: After the HaCaT cells were treated with various concentrations (0-2 μM) of DMMTA^v for 24 h, and the cell survival was detected by the CCK-8 kit. The chronic exposure dose of DMMTA^v is determined to be 1.0 μM.

[6] = test system: HaCaT cells; assay: Cell doubling time after persistent exposure of sub-cultured HaCaT cells; conditions: persistent exposure to 1.0 μM; 28th, 35th passage; vs passage control, P<0.05; FIG. 3
Description: as §1, §2

C[As](C)(O)=S [DMMTA^v, dimethylmonothioarsinic acid]
colony formation in soft agar [1]: can form obvious colonies in soft agar
colony formation rate compared with the passage control group cells ([1]; soft agar, P<0.05): significantly higher
secretion of MMP-9 compared with the passage control group [2]: significantly increased
cell migration ability [3]: significantly enhanced
induction of malignant transformation of HaCaT cells [4]: can induce HaCaT cells to undergo malignant transformation
dose with the highest cell survival rate (chronic exposure dose) [5]: 1.0 µM
cell doubling time [6]: significantly reduced

Reference: US20230159910A1, “DIMETHYLMONOTHIOARSINIC ACID-INDUCED MALIGNANTLY TRANSFORMED CELL LINE OF HUMAN KERATINOCYTES AND USE THEREOF” (SOOCHOW UNIVERSITY, priority 2021, published 2023)
